Tests used:
[1] = target: T1, P. aeruginosa HisRS (Pseudomonas aeruginosa, UniProt Q9HXJ5); assay: ATP:PPi exchange reactions; type: biochemical; conditions: substrate varied, other substrate constant at 2 mM
T1 sequence (Q9HXJ5 1-429): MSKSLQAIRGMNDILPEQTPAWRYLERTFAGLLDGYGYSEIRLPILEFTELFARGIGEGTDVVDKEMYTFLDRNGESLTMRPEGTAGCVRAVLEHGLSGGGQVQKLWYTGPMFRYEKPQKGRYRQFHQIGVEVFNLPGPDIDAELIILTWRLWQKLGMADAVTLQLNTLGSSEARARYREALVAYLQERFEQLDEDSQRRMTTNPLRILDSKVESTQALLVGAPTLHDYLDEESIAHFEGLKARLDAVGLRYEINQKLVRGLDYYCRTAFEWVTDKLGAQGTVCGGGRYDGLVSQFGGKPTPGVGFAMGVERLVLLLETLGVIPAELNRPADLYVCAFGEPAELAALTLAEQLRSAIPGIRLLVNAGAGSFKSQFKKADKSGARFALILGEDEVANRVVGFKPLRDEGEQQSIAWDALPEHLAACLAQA

[2] = test system: E. coli HisRS; conditions: cited from earlier work
[3] = substrate: N[C@@H](Cc1c[nH]cn1)C(=O)O; assay: ATP:PPi exchange reactions; type: biochemical, Pseudomonas aeruginosa; conditions: other: substrate varied, other substrate constant at 2 mM; pH 7.5; 37.0 °C
[4] = substrate: Nc1ncnc2c1ncn2[C@@H]1O[C@H](COP(=O)(O)OP(=O)(O)OP(=O)(O)O)[C@@H](O)[C@H]1O; assay: ATP:[32P]PPi exchange at pH 7.5, 37 °C, 0.05 µM HisRS, ATP varied; type: biochemical

In the case of `Nc1ncnc2c1ncn2[C@@H]1O[C@H](COP(=O)(O)OP(=O)(O)OP(=O)(O)O)[C@@H](O)[C@H]1O` [ATP], the Km [1] is given as 298 µM, the “kcat (turnover number)” value [1] is given as 16.8 s⁻¹ and the Km ([2]; E. coli HisRS ref 12) is given as 890 µM. The kcat ([2]; E. coli HisRS, interaction with ATP ref 24) was 34 s⁻¹.

In the case of `N[C@@H](Cc1c[nH]cn1)C(=O)O` [histidine], the turnover ([2]; E. coli HisRS, interaction with His, different research groups ref 24, 25) is given as 7 to 142 s⁻¹.

B1: P. aeruginosa HisRS (Pseudomonas aeruginosa PAO1) (protein)
chain: T1 sequence (Q9HXJ5 1-429)
Molecule B1 has a Km [3] of 37.6 µM, a kcat [3] of 8.32 s⁻¹ and a Km [4] of 298.5 µM.

Reference: publication PMC5794219 (SLAS discovery : advancing life sciences R & D, 2017)
